Activity calls are given as the source filed them. The calls are words filed in the database; no cut-off is given here.
Legend:
MDA-MB-231 [1] = assay: Induction of apoptosis in human MDA-MB-231 cells assessed as decrease in STAT3 level by Western blot analysis; assay type: functional, cell-based; conditions: dose 0.1-0.4 µM
HCC1806 [2] = assay: Induction of apoptosis in human HCC1806 cells assessed as early apoptotic cells at 0.4 uM incubated for 24 hrs by Annexin V-FITC/PI staining based flow cytometry (reference value: 0.67 %); assay type: functional
MDA-MB-231 [3] = assay: Induction of apoptosis in human MDA-MB-231 cells assessed as decrease in Bcl-2 level by Western blot analysis; assay type: functional, cell-based; conditions: dose 0.1-0.4 µM
HCC1806 [4] = assay: Induction of apoptosis in human HCC1806 cells assessed as late apoptotic cells at 0.4 uM incubated for 24 hrs by Annexin V-FITC/PI staining based flow cytometry (reference value: 0.23 %); assay type: functional
MDA-MB-231 [5] = assay: Induction of apoptosis in human MDA-MB-231 cells assessed as viable cells at 1.6 uM incubated for 24 hrs by Annexin V-FITC/PI staining based flow cytometry (reference value: 97.54 %); assay type: functional; conditions: read-out: Activity
MDA-MB-231 [6] = assay: Induction of apoptosis in human MDA-MB-231 cells assessed as early apoptotic cells at 0.2 uM incubated for 24 hrs by Annexin V-FITC/PI staining based flow cytometry (reference value: 1.16 %); assay type: functional
HCC1806 [7] = assay: Downregulation of CUL5 level in human HCC1806 cells at 0.1 to 0.4 uM incubated for 24 hrs by Western blot analysis; assay type: functional, cell-based; conditions: dose 0.1-0.4 µM
MDA-MB-231 [8] = assay: Induction of apoptosis in human MDA-MB-231 cells assessed as viable cells at 0.4 uM incubated for 24 hrs by Annexin V-FITC/PI staining based flow cytometry (reference value: 97.54 %); assay type: functional; conditions: read-out: Activity
HCC1806 [9] = assay: Antitumor activity against human HCC1806 cells xenografted in Balb/c mouse assessed as increase in E-cadherin level at 40 to 60 mg/kg, ip bid measured after 14 days by IHC analysis; assay type: functional, organism-based; conditions: dose 40-60 mg/kg, time 14.0 day
HCC1806 [10] = assay: Induction of apoptosis in human HCC1806 cells assessed as early apoptotic cells at 0.2 uM incubated for 24 hrs by Annexin V-FITC/PI staining based flow cytometry (reference value: 0.67 %); assay type: functional
HCC1806 [11] = assay: Anti-proliferative activity against human HCC1806 cells assessed as cell survival; assay type: functional; conditions: dose < 0.4 µM; time 24 hrs
MDA-MB-231 [12] = assay: Inhibition of colony formation in human MDA-MB-231 cells at 0.05 uM measured after 7 days; assay type: functional, cell-based; conditions: time 7.0 day
HCC1806 [13] = assay: Antitumor activity against human HCC1806 cells xenografted in Balb/c mouse assessed as decrease in Ki67 level at 40 to 60 mg/kg, ip bid measured after 14 days by IHC analysis; assay type: functional, organism-based; conditions: dose 40-60 mg/kg, time 14.0 day
HCC1806 [14] = assay: Induction of apoptosis in human HCC1806 cells assessed as necrotic cells at 1.6 uM incubated for 24 hrs by Annexin V-FITC/PI staining based flow cytometry (reference value: 0.15 %); assay type: functional
HCC1806 [15] = assay: Inhibition of cell migration in human HCC1806 cells; assay type: functional, cell-based; conditions: dose 0.05-2 µM
MDA-MB-231 [16] = assay: Induction of apoptosis in human MDA-MB-231 cells assessed as late apoptotic cells at 0.4 uM incubated for 24 hrs by Annexin V-FITC/PI staining based flow cytometry (reference value: 1.23 %); assay type: functional
MDA-MB-231 [17] = assay: Induction of apoptosis in human MDA-MB-231 cells assessed as ROS production rate at 0.4 uM incubated for 24 hrs by DCFH-DA staining based flow cytometry (reference value: 0.28 %); assay type: functional
MDA-MB-231 [18] = assay: Anti-proliferative activity against human MDA-MB-231 cells assessed as cell survival; assay type: functional; conditions: dose < 0.4 µM; time 24 hrs
HCC1806 [19] = assay: Inhibition of colony formation in human HCC1806 cells at 0.05 uM measured after 7 days; assay type: functional, cell-based; conditions: time 7.0 day
HCC1806 [20] = assay: Induction of apoptosis in human HCC1806 cells assessed as necrotic cells at 0.4 uM incubated for 24 hrs by Annexin V-FITC/PI staining based flow cytometry (reference value: 0.15 %); assay type: functional
HCC1806 [21] = assay: Induction of apoptosis in human HCC1806 cells assessed as late apoptotic cells at 0.1 uM incubated for 24 hrs by Annexin V-FITC/PI staining based flow cytometry (reference value: 0.23 %); assay type: functional
MDA-MB-231 [22] = assay: Induction of apoptosis in human MDA-MB-231 cells assessed as late apoptotic cells at 0.2 uM incubated for 24 hrs by Annexin V-FITC/PI staining based flow cytometry (reference value: 1.23 %); assay type: functional
HCC1806 [23] = assay: Antitumor activity against human HCC1806 cells xenografted in Balb/c mouse assessed as reduction in tumor volume at 40 to 60 mg/kg, ip bid measured after 14 days; assay type: functional, organism-based; conditions: dose 40-60 mg/kg, time 14.0 day
HCC1806 [24] = assay: Anti-proliferative activity against human HCC1806 cells assessed as reduction in EdU-positive cells at 0.2 uM; assay type: functional, cell-based
[25] = Half life in Sprague-Dawley rat at 4 mg/kg, ip; assay type: ADME, organism-based; conditions: in vivo
MDA-MB-231 [26] = assay: Induction of apoptosis in human MDA-MB-231 cells assessed as early apoptotic cells at 1.6 uM incubated for 24 hrs by Annexin V-FITC/PI staining based flow cytometry (reference value: 1.16 %); assay type: functional
MDA-MB-231 [27] = assay: Induction of apoptosis in human MDA-MB-231 cells assessed as ROS production rate at 0.1 uM incubated for 24 hrs by DCFH-DA staining based flow cytometry (reference value: 0.28 %); assay type: functional
HCC1806 [28] = assay: Induction of apoptosis in human HCC1806 cells assessed as early apoptotic cells at 0.1 uM incubated for 24 hrs by Annexin V-FITC/PI staining based flow cytometry (reference value: 0.67 %); assay type: functional
HCC1806 [29] = assay: Downregulation of SOCS3 level in human HCC1806 cells at 0.1 to 0.4 uM incubated for 24 hrs by Western blot analysis; assay type: functional, cell-based; conditions: dose 0.1-0.4 µM
HCC1806 [30] = assay: Induction of apoptosis in human HCC1806 cells assessed as ROS production rate at 0.1 uM incubated for 24 hrs by DCFH-DA staining based flow cytometry (reference value: 0.23 %); assay type: functional
[31] = Toxicity in Balb/c nude mouse assessed as histopathological change in lung at 60 mg/kg, ip bid for 14 days consecutively; assay type: organism-based; conditions: in vivo, 336 h, time 14 day
MDA-MB-231 [32] = assay: Induction of apoptosis in human MDA-MB-231 cells assessed as late apoptotic cells at 1.6 uM incubated for 24 hrs by Annexin V-FITC/PI staining based flow cytometry (reference value: 1.23 %); assay type: functional
[33] = Toxicity in Balb/c nude mouse assessed as histopathological change in liver at 60 mg/kg, ip bid for 14 days consecutively; assay type: organism-based; conditions: in vivo, 336 h, time 14 day
MDA-MB-231 [34] = assay: Induction of apoptosis in human MDA-MB-231 cells assessed as ROS production rate at 0.2 uM incubated for 24 hrs by DCFH-DA staining based flow cytometry (reference value: 0.28 %); assay type: functional
MDA-MB-231 [35] = assay: Induction of apoptosis in human MDA-MB-231 cells assessed as viable cells at 0.1 uM incubated for 24 hrs by Annexin V-FITC/PI staining based flow cytometry (reference value: 97.54 %); assay type: functional; conditions: read-out: Activity
MDA-MB-231 [36] = assay: Induction of apoptosis in human MDA-MB-231 cells assessed as decrease in JAK2 level by Western blot analysis; assay type: functional, cell-based; conditions: dose 0.1-0.4 µM
MDA-MB-231 [37] = assay: Inhibition of cell migration in human MDA-MB-231 cells; assay type: functional, cell-based; conditions: dose 0.05-2 µM

For COc1cc(Nc2cc(F)ccc2C(=O)NCCc2c[nH]c3c(F)ccc(F)c23)cc(OC)c1OC, the Activity (MDA-MB-231 [1]) was “Active”, the Activity (HCC1806 [2]) was 2.94% and the Activity (MDA-MB-231 [3]) was “Active”. It also gave an Activity (HCC1806 [4]) of 0.76%, a viability at 1.6 µM (MDA-MB-231 [5]) of 87.4% and an Activity (MDA-MB-231 [6]) of 1.99%. For the same compound, the Activity (HCC1806 [7]) was “Active”, the viability at 0.4 µM (MDA-MB-231 [8]) was 95.7% and the Activity (HCC1806 [9]) was “Active”. The Activity (HCC1806 [10]) was 1.13%, the Survival (HCC1806 [11]) was greater than 80% and the inhibition (MDA-MB-231 [12]) was “Active”. For the same compound, the Activity (HCC1806 [13]) was “Active”, the Activity (HCC1806 [14]) was 0.35% and the inhibition (HCC1806 [15]) was “Active”. The Activity (MDA-MB-231 [16]) was 1.83%, the Activity (MDA-MB-231 [17]) was 3.17% and the Survival (MDA-MB-231 [18]) was greater than 80%. For the same compound, the inhibition (HCC1806 [19]) was “Active”, the Activity (HCC1806 [20]) was 0.28% and the Activity (HCC1806 [21]) was 0.29%. The Activity (MDA-MB-231 [22]) was 1.69%, the Activity (HCC1806 [23]) was “Active” and the Activity (HCC1806 [24]) was “Active”. The half-life [25] was 334 min, the Activity (MDA-MB-231 [26]) was 7.55% and the Activity (MDA-MB-231 [27]) was 0.61%. For the same compound, the Activity (HCC1806 [28]) was 0.65%, the Activity (HCC1806 [29]) was “Active” and the Activity (HCC1806 [30]) was 0.66%. The Activity [31] was “Non-Toxic”, the Activity (MDA-MB-231 [32]) was 4.95% and the Activity [33] was “Non-Toxic”. For the same compound, the Activity (MDA-MB-231 [34]) was 1.06%, the viability at 0.1 µM (MDA-MB-231 [35]) was 96.9% and the Activity (MDA-MB-231 [36]) was “Active”. For the same compound, the inhibition (MDA-MB-231 [37]) was “Active”.
